Test results: ChEMBL document CHEMBL1125608, “Synthesis and biological activity of angiotensin II analogues containing a Val-His replacement, Val psi[CH(CONH2)NH]His” (J Med Chem, 1991)
Peptide text beside a SMILES is read from it. * marks the point of attachment. Propanoyl(3-(4-MeO-Ph)) = COc1ccc(CCC(=O)*)cc1; Desaminotyrosyl = O=C(CCc1ccc(O)cc1)*; Cbz = O=C(OCc1ccccc1)*

Columns and labels:
[1] = biological target: Angiotensin II receptor (Cavia porcellus); experiment: Inhibitory activity as antagonist of AII on guinea pig ileum
[2] = species: Cavia porcellus; experiment: The compound was tested for its inhibitory activity as antagonist of AI on guinea pig ileum; format: functional, organism-based
[3] = biological target: Angiotensin II receptor (Cavia porcellus); experiment: The compound was tested for its inhibitory activity as antagonist of AII on guinea pig ileum
[4] = system: Angiotensin II receptor (Oryctolagus cuniculus); experiment: Displacement of [3H]Angiotensin II (300 ng/mL) from rabbit adrenal cortex

| Structure (SMILES) | IC50 [1] [nM] | IC50 [2] [nM] | IC50 [3] [nM] | Displacement [4] [%] |
| --- | --- | --- | --- | --- |
| CC[C@H](C)[C@H](NC(=O)[C@@H]1CCCN1C(=O)[C@H](Cc1c[nH]cn1)NC(C(N)=O)[C@@H](NC(=O)OCc1ccccc1)C(C)C)C(=O)O (some centres undefined) |  | > 15000 | > 15000 |  |
| CC[C@H](C)[C@H](NC(=O)[C@@H]1CCCN1C(=O)[C@H](Cc1c[nH]cn1)NC(=O)[C@@H](NC(=O)[C@H](Cc1ccc(O)cc1)NC(=O)[C@@H](NC(=O)[C@H](CCCN=C(N)N)NC(=O)CNC)C(C)C)[C@@H](C)CC)C(=O)O |  | 0.17 |  |  |
| CC[C@H](C)[C@H](NC(=O)[C@@H]1CCCN1C(=O)[C@H](Cc1c[nH]cn1)NC(=O)[C@@H](NC(=O)[C@H](Cc1ccc(O)cc1)NC(=O)[C@@H](NC(=O)[C@H](CCCN=C(N)N)NC(=O)CNC)C(C)C)C(C)C)C(=O)O | 0.45 | 0.51 |  | 100 |
| CC[C@H](C)[C@H](NC(=O)[C@@H]1CCCN1C(=O)[C@H](Cc1c[nH]cn1)NC(=O)[C@@H](NC(=O)CCc1ccc(O)cc1)C(C)C)C(=O)O (Desaminotyrosyl-VHPI-OH) | > 15000 | > 15000 |  | 0 |
| CC[C@H](C)[C@H](NC(=O)[C@@H]1CCCN1C(=O)[C@H](Cc1c[nH]cn1)NC(=O)[C@@H](NC(=O)CCc1ccc(OC)cc1)C(C)C)C(=O)O ({Propanoyl(3-(4-MeO-Ph))}-VHPI-OH) | > 15000 | > 15000 |  | 0 |
| CNCC(=O)N[C@@H](CCCNC(=N)N)C(=O)N[C@H](C(=O)N[C@@H](Cc1ccc(O)cc1)C(=O)N[C@H](C(=O)N[C@@H](Cc1cnc[nH]1)C(=O)N1CCC[C@H]1C(=O)N[C@@H](C)C(=O)O)C(C)C)C(C)C [SARALASIN] |  | 0.048 |  |  |

Now from value to molecule:

| IC50 [1] [nM] | IC50 [2] [nM] | IC50 [3] [nM] | Displacement [4] [%] | Structure (SMILES) |
| --- | --- | --- | --- | --- |
| 330 | 345 |  |  | CC[C@H](C)[C@H](NC(=O)[C@@H]1CCCN1C(=O)[C@H](Cc1c[nH]cn1)N[C@H](C(N)=O)[C@@H](NC(=O)[C@H](Cc1ccc(O)cc1)NC(=O)[C@@H](NC(=O)[C@H](CCCN=C(N)N)NC(=O)CNC)C(C)C)C(C)C)C(=O)O |
|  | 0.56 |  |  | CC[C@H](C)[C@H](NC(=O)[C@H](Cc1ccc(O)cc1)NC(=O)[C@@H](NC(=O)[C@H](CCCN=C(N)N)NC(=O)CNC)C(C)C)C(=O)N[C@@H](Cc1c[nH]cn1)C(=O)N1CCC[C@H]1C(=O)N[C@@H](C)C(=O)O |
| > 15000 | > 15000 |  | 10 | CC[C@H](C)[C@H](NC(=O)[C@@H]1CCCN1C(=O)[C@H](Cc1c[nH]cn1)NC(=O)[C@@H](NC(=O)OCc1ccccc1)C(C)C)C(=O)O (Cbz-VHPI-OH) |
